Experimental data as given in article PMC8587756, “Spirostanol Saponins from Flowers of Allium Porrum and Related Compounds Indicating Cytotoxic Activity and Affecting Nitric Oxide Production Inhibitory Effect in Peritoneal Macrophages” (Molecules, 2021).
Like-named read-outs stand apart in the source and are kept apart here.

What was measured:
[1] = test system: murine monocyte/macrophage cell line J-774; set-up: method as in PMID 9358643; settings: 24 h, MTT assay; cited from earlier work
[2] = Cell viability / cytotoxicity, LDH assay in mouse peritoneal cells; format: cell-based
Experimental: (§1) Biological effects of studied compounds were evaluated in vitro, using mouse (C57BL6, Charles River Deutschland, Sulzfeld, Germany) peritoneal cells. Animals, killed by cervical dislocation, were i.p. injected with 8 mL of sterile saline. Pooled peritoneal cells collected from mice (n = 4–6 in individual experiments) were washed, re-suspended in culture medium, and seeded into 96-well round-bottom microplates (Costar, Corning, NY, USA) in 100-μL volumes, 2 × 10^5 cells/well. All experimental variants were run in duplicate. […] Cultures were maintained at 37 °C, 5% CO2 in humidified incubator (Sanyo Electric Biomedical, Osaka, Japan).
(§2) Viability of cells was analysed using the LDH (lactate dehydrogenase) assay. It is based on the determination of lactate dehydrogenase activity released from the cytosol of damaged cells into cell supernatant. The supernatants were harvested at the interval of 22 h of culture, diluted 1:1, and mixed with an aliquot of the LDH kit (Sigma-Aldrich, St. Louis, MO, USA). After 30-min incubation in the dark at ambient temperature, the reaction was stopped with 2 N HCl. […] Triton (1%) was used to induce 100% cell death. All control and experimental variants were run in quadruplicate.

[3] = test system: NO production in mouse peritoneal cells; assay: Nitric oxide production induced by LPS and IFN-γ in mouse peritoneal cells (Griess reagent); format: cell-based; settings: for inhibitory effects (in words): tested up to 25 µM; for effect on production of NO (in words): LPS + IFN-γ, 24 h, Figure 3B; for IC50: LPS 0.1 ng/mL + IFN-γ 5 ng/mL, nitrites at 24 h, read-out: Nitric Oxide, IC50 (95% Limits of Confidence)
Experimental: Biological effects of studied compounds were evaluated in vitro, using mouse (C57BL6, Charles River Deutschland, Sulzfeld, Germany) peritoneal cells. Animals, killed by cervical dislocation, were i.p. injected with 8 mL of sterile saline. Pooled peritoneal cells collected from mice (n = 4–6 in individual experiments) were washed, re-suspended in culture medium, and seeded into 96-well round-bottom microplates (Costar, Corning, NY, USA) in 100-μL volumes, 2 × 10^5 cells/well. All experimental variants were run in duplicate. Complete RPMI-1640 culture medium (Sigma-Aldrich, St. Louis, MO, USA) contained 10% heat-inactivated foetal bovine serum, 2 mM L-glutamine, 50 μg/mL gentamicin, and 5 × 10^−5 M 2-mercaptoethanol (all Sigma-Aldrich). Cultures were maintained at 37 °C, 5% CO2 in humidified incubator (Sanyo Electric Biomedical, Osaka, Japan). The Institution Animal Ethics Committee (No. 13/2006) approved the animal welfare and all experimental procedures.
High output NO production was induced by mixture of lipopolysaccharide (LPS from E. coli 0111:B4, 0.1 ng/mL; Sigma) and murine recombinant interferon-γ (IFN-γ, 5 ng/mL; R&D Systems, Minneapolis, MN, USA) in mouse peritoneal cells. Tested compounds were applied concomitantly with these priming stimuli. The concentration of nitrites in supernatants of cells was assayed at the interval of 24 h. It was detected in individual, cell-free samples (50 μL) incubated 5 min at ambient temperature with an aliquot of a Griess reagent (1% sulphanilamide/0.1% naphtylendiamine/2.5% H3PO4). The absorbance at 540 nm was recorded using a microplate spectrophotometer (Tecan, Grödig, Austria). A nitrite calibration curve was used to convert absorbance to μM nitrite.
Estimates of 50% inhibitory concentrations of compounds (IC50, and CC50), correlation analysis, and graphical presentation of data were done using the Prism program (GraphPad Software, San Diego, CA, USA).

[4] = test system: mouse peritoneal cells; assay: Cell viability / cytotoxicity, LDH assay in mouse peritoneal cells; format: cell-based
Experimental: as §1, §2

[5] = test system: murine leukemia cells P388; set-up: method as in PMID 9836426; settings: cancer murine leukemia cells P388; cited from earlier work
[6] = test system: RAW 246.7 macrophages and lymphocytes; set-up: method as in PMID 26329920; settings: different concentrations, 72 h, MTT assay; cited from earlier work
[7] = mouse peritoneal cells, LDH assay, 24 h, Figure 3A
[8] = C57BL6, mouse peritoneal cells, LDH assay, cultured 24 h (supernatants harvested at 22 h), read-out: Cytotoxicity CC50 (95% Limits of Confidence)

CC1CC[C@@]2(OC1)O[C@H]1C[C@H]3[C@@H]4C[C@@H](O)C5C[C@@H](O)[C@H](O)C[C@]5(C)[C@H]4CC[C@]3(C)[C@H]1[C@@H]2C (stereo partly drawn) [Compound 4, spirostan-2α, 3β, 6β–triol]
cytotoxicity (in words) [1]: did not show cytotoxicity
CC50 at 22 h ([2]; C57BL6, mouse): > 100 µM
inhibitory effects (in words) [3]: devoid of any inhibitory effects

C[C@@H]1CC[C@@]2(OC1)O[C@H]1CC3C4CCC5C[C@@H](O[C@@H]6O[C@H](CO)[C@H](O[C@@H]7O[C@H](CO)[C@@H](O)[C@H](O[C@@H]8OC[C@@H](O)[C@H](O)[C@H]8O)[C@H]7O[C@@H]7O[C@H](CO)[C@@H](O)[C@H](O)[C@H]7O)[C@H](O)[C@H]6O)[C@H](O)C[C@]5(C)C4CC[C@]3(C)C1[C@@H]2C (stereo partly shown) [Compound 2, 6-deoxy-aginoside]
cytotoxic effects in model immune cells (in words) [4]: strong cytotoxic effects
concentration at onset of cell viability decline [4, 7]: approximately 4 µM
CC50 at 22 h ([2]; C57BL6, mouse): 5.7 µM
effect on production of NO (in words) [3]: inhibited the production of NO

C[C@@H]1CC[C@@]2(OC1)O[C@H]1[C@@H](O)[C@H]3[C@@H]4CC[C@H]5C[C@@H](O[C@@H]6O[C@H](CO)[C@H](O[C@@H]7O[C@H](CO)[C@@H](O)[C@H](O[C@@H]8OC[C@@H](O)[C@H](O)[C@H]8O)[C@H]7O[C@@H]7O[C@H](CO)[C@H](O)[C@H](O[C@@H]8O[C@H](CO)[C@@H](O)[C@H](O)[C@H]8O)[C@H]7O)[C@H](O)[C@H]6O)[C@H](O)C[C@]5(C)[C@H]4CC[C@]3(C)[C@H]1[C@@H]2C [Compound 5, digitonin, reference compound]
concentration at onset of cell viability decline [4, 7]: approximately 4 µM
cytotoxic effects in model immune cells (in words) [4, 7]: strong cytotoxic effects
CC50 at 22 h [2, 8]: 5.83 µM
IC50 [3]: 5.52 µM
effect on production of NO (in words) [3]: inhibited the production of NO

tomatonin [Compound 6, reference compound]
concentration at onset of cell viability decline [4, 7]: approximately 4 µM
cytotoxic effects in model immune cells (in words) [4, 7]: strong cytotoxic effects
CC50 ([4]; mouse peritoneal cells, LDH assay, cultured 24 h (supernatants harvested at 22 h), read-out: Cytotoxicity CC50 (95% Limits of Confidence)): 9.9 µM
IC50 [3]: 7.19 µM
effect on production of NO (in words) [3]: inhibited the production of NO

C[C@@H]1CC[C@@]2(OC1)O[C@H]1CC3C4C[C@@H](O)C5C[C@@H](O[C@@H]6O[C@H](CO)[C@H](O[C@@H]7O[C@H](CO)[C@@H](O)[C@H](O[C@@H]8OC[C@@H](O)[C@H](O)[C@H]8O)[C@H]7O[C@@H]7O[C@H](CO)[C@@H](O)[C@H](O)[C@H]7O)[C@H](O)[C@H]6O)[C@H](O)C[C@]5(C)C4CC[C@]3(C)C1[C@@H]2C (stereo partly shown) [Compound 1, aginoside]
cytotoxic effects in model immune cells (in words) [4]: strong cytotoxic effects
concentration at onset of cell viability decline [4, 7]: approximately 4 µM
CC50 at 22 h ([2]; C57BL6, mouse): 11.1 µM
effect on production of NO (in words) [3]: inhibited the production of NO
cytotoxicity IC50 [5]: 2.1 µg/mL

C[C@@H]1CC[C@@]2(OC1)O[C@H]1C[C@H]3[C@@H]4CC=C5C[C@@H](O[C@@H]6O[C@H](CO)[C@@H](O[C@@H]7O[C@@H](C)[C@H](O)[C@@H](O)[C@H]7O)[C@H](O)[C@H]6O[C@@H]6O[C@@H](C)[C@H](O)[C@@H](O)[C@H]6O)CC[C@]5(C)[C@H]4CC[C@]3(C)[C@H]1[C@@H]2C [dioscin, reference compound]
cytotoxicity IC50 [5]: 0.092 µg/mL

CC1CCC2(OC1)OC1CC3C4CC(O)C5CC(OC6OC(CO)C(OC7OC(CO)C(O)C(OC8OCC(O)C(O)C8O)C7OC7OC(CO)C(O)C(OC8OC(CO)C(O)C(O)C8O)C7O)C(O)C6O)C(O)CC5(C)C4CCC3(C)C1C2C (stereo not shown) [Compound 3]
cytotoxic effects in model immune cells (in words) [4]: strong cytotoxic effects
concentration at onset of cell viability decline [4, 7]: approximately 4 µM
CC50 at 22 h ([2]; C57BL6, mouse): 7.21 µM
effect on production of NO (in words) [3]: inhibited the production of NO

C[C@@H]1CC[C@@]2(OC1)O[C@H]1C[C@H]3[C@@H]4CC=C5C[C@@H](O)CC[C@]5(C)[C@H]4CC[C@]3(C)[C@H]1[C@@H]2C [Compound 7, diosgenin]
CC50 at 22 h [2, 8]: > 100 µM
cytotoxicity (in words) [6]: No changes in cytotoxicity
IC50 [3]: > 100 µM
inhibitory effects (in words) [3]: devoid of any inhibitory effects
